The record followed here is patent publication US11976083B2, “Inhibitors of peptidylarginine deiminases” (Gilead Sciences, Inc., priority 2020, dated 2024).

The assay has as its target T1, human PAD4 (Homo sapiens, UniProt Q9UM07).
T1 construct: human PAD4 (NM_012387), A2-P663, was PCR amplified; His-SUMO (N, cleaved yes); made in house; host or cells: E. coli BL21(DE3)
Briefly: In vitro PAD4 BAEE biochemical assay. The note with it: BAEE substrate 3 mM, 5 nM PAD4, 2 mM calcium chloride; geometric mean of multiple experiments. An outline of the steps: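 Ammonia produced by BAEE deimination (3 mM substrate, 2 h, 25 °C) was read as fluorescent isoindole after o-phthalaldehyde/DTT derivatization, ex 405 nm/em 535 nm. Human PAD4 at 5 nM final, 2 mM calcium, pH 7.6 MOPS; compound preincubated 30 min. IC50s, normalized to BB-Cl-Amidine and DMSO controls, were geometric-mean averaged.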

T1 sequence (Q9UM07 2-663): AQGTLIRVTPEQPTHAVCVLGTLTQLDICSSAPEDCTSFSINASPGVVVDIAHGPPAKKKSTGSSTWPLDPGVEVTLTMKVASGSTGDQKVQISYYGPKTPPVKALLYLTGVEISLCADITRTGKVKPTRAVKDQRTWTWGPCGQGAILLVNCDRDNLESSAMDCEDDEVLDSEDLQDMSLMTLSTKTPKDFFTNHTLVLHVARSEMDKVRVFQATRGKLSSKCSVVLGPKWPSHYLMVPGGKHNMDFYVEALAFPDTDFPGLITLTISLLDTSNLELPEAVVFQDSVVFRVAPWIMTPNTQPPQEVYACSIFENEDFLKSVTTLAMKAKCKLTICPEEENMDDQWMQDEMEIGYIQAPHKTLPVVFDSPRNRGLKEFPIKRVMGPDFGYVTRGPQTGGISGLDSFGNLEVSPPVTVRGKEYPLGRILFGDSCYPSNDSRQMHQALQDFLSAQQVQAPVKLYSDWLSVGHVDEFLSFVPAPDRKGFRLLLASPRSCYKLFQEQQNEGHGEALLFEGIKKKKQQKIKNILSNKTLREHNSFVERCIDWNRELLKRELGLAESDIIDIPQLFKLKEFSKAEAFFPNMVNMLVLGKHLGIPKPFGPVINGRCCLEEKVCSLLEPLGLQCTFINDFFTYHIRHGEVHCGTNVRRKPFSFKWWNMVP

Take `COc1cc(C(=O)N2C[C@H](N)[C@@H]3CC[C@H]2C3)cc2nc(-c3cc4ccc5nc4n3CCCCC[C@@H]3C[C@@]3(C)C(=O)N[C@@H]5C)n(C)c12` [Example 917, (2~{R},5~{R},7~{R})-14-[5-[(1~{S),4~{R},5~{R})-4-amino-2-azabicyclo[3.2.1]octane-2-carbonyl]-7-methoxy-1-methyl-benzimidazol-2-yl]-2,5-dimethyl-3,13,19-triazatetracyclo[11.5.2.0^ {5,7}.0^{16,20}]icosa-1(19), 14,16(20),17-tetraen-4-one]: the IC50 was determined as 27 nM. Consider `COc1cc(C(=O)N2CCC[C@@H](N)C2)cc2nc(-c3cc4ccc5nc4n3CCCOC[C@H]3C[C@H]3C(=O)N[C@@H]5C)n(C)c12` [Example 308, (2~{R},5~{R},7~{S})-14-[5-[(3~{R})-3-aminopiperidine-1-carbonyl]-7-methoxy-1-methyl-benzimidazol-2-yl]-2-methyl-9-oxa-3,13,19-triazatetracyclo[11.5.2.0^{5,7}.0^{16,20}] icosa-1(19),14,16(20),17-tetraen-4-one], for which the IC50 was 72 nM.

For `COc1cc(C(=O)N2CC[C@@H](OC)[C@@H](N)C2)cc2nc(-c3cc4ccc5cc4n3CCCCCc3nccnc3C(=O)N[C@@H]5C)n(C)c12` [Example 576, (2~{R})-17-[5-[(3~{S},4~ {R})-3-amino-4-methoxy-piperidine-1-carbonyl]-7-methoxy-1-methyl-benzimidazol-2-yl]-2-methyl-3,6,9,16-tetrazatetracyclo[14.5.2.0^ {5,10}.0^{19,23}] tricosa-1(22),5(10),6,8,17, 19(23),20-heptaen-4-one], the IC50 was found to be 68 nM. Regarding `COc1cc(C(=O)N2CCC[C@@H](N)C2)cc2nc(-c3cc4ccc5nc4n3CCCCCC[C@](C)(C(F)(F)F)C(=O)N[C@@H]5C)n(C)c12` [Example 4, (8~{S},11~{R})-17-[5-[(3~{R})-3-aminopiperidine-1-carbonyl]-7-methoxy-1-methyl-benzimidazol-2-yl]-8,11-dimethyl-8-(trifluoromethyl)-1,10,19-triazatricyclo[10.5.2.0^{15,18}]nonadeca-12(19),13,15(18),16-tetraen-9-one], the IC50 stood at 69 nM. In the case of `CO[C@@H]1CCN(C(=O)c2cc(F)c3c(c2)nc(-c2cc4ccc5nc4n2CCCCCC[C@H](c2cccc(Cl)n2)C(=O)N[C@@H]5C)n3C2CC2)C[C@@H]1N` [Example 872, (8~{R},11~{R})-17-[5-[(3~ {S},4~{R})-3-amino-4-methoxy-piperidine-1-carbonyl]-1-cyclopropyl-7-fluoro-benzimidazol-2-yl]-8-(6-chloro-2-pyridyl)-11-methyl-1,10,19-triazatricyclo[10.5.2.0^ {15,18}]nonadeca-12(19), 13,15(18),16-tetraen-9-one] it was 90 nM; in that of `COc1cc(C(=O)N2CC[C@@H](OC)[C@@H](N)C2)cc2nc(-c3cc4ccc5nc4n3C[C@H]3C[C@H]3CCC[C@@](C)(C(F)(F)F)C(=O)N[C@@H]5C)n(C)c12` [Example 372, (3~{S},5~{R},9~{R},12~{R})-18-[5-[(3~{S},4~{R})-3-amino-4-methoxy-piperidine-1-carbonyl]-7-methoxy-1-methyl-benzimidazol-2-yl]-9,12-dimethyl-9-(trifluoromethyl)-1,11,20-triazatetracyclo[11.5.2.0^{3,5}.0^{16,19}] icosa-13(20),14,16(19),17-tetraen-10-one], 183 nM. In the case of `C[C@H]1NC(=O)c2nccnc2CCCCCn2c(-c3nc4cc(C(=O)N5C[C@H](N)[C@@H]6CC[C@H]5C6)cc(F)c4n3C3CC3)cc3ccc1nc32` [Example 485, (2~{R})-17-[5-[(1~{S),4~{R},5~{R})-4-amino-2-azabicyclo[3.2.1]octane-2-carbonyl]-1-cyclopropyl-7-fluoro-benzimidazol-2-yl]-2-methyl-3,6,9,16,22-pentazatetracyclo[14.5.2.0^{5,10}.0^{19, 23}]tricosa-1(22),5(10),6,8,17,19(23),20-heptaen-4-one] it was 29 nM; in that of `COc1cc(C(=O)N2C[C@H](N)[C@@H]3CC[C@H]2C3)cc2nc(-c3cc4ccc5nc4n3CCCCCc3nc(C(F)F)ccc3C(=O)N[C@@H]5C)c(C)n12` [Example 777, (2~{R})-17-[7-[(1~{S},4~{R},5~ {R})-4-amino-2-azabicyclo [3.2.1]octane-2-carbonyl]-5-methoxy-3-methyl-imidazo[1,2-a]pyridin-2-yl]-8-(difluoromethyl)-2-methyl-3,9,16,22-tetrazatetracyclo [14.5.2.0^{5,10).0^{19,23}] tricosa-1(22),5(10),6,8,17, 19(23),20-heptaen-4-one], 17 nM. In the case of `C[C@H]1NC(=O)[C@@H]2C[C@H]2CCCCCn2c(-c3nc4cc(C(=O)N[C@H]5CNCC[C@@H]5F)c(F)cc4n3[C@@H]3C[C@H]3C(F)F)cc3ccc1nc32` [Example 415, 1-[(1~{R},2~{R})-2-(difluoromethyl)cyclopropyl]-6-fluoro-~ {N}-[(3~{S},4~{S})-4-fluoro-3-piperidyl]-2-[(2~{R},5~{R},7~{R})-2-methyl-4-oxo-3,13,19-triazatetracyclo[11.5.2.0^{5,7}.0^{16,20}]icosa-1(19),14,16(20),17-tetraen-14-yl]benzimidazole-5-carboxamide], the half-maximal inhibitory concentration (IC50) came to 52 nM. In the case of `COCCn1c(-c2cc3ccc4nc3n2CCCCC[C@@H]2C[C@H]2C(=O)N[C@@H]4C)nc2cc(C(=O)N3CCC[C@@H](N)C3)cc(OC)c21` [Example 433, (2~{R},5~{R},7~{R})-14-[5-[(3~{R})-3-aminopiperidine-1-carbonyl]-7-methoxy-1-(2-methoxyethyl)benzimidazol-2-yl]-2-methyl-3,13,19-triazatetracyclo[11.5.2.0^{5,7}.0^{16,20}] icosa-1(19),14,16(20),17-tetraen-4-one] it was 46 nM; in that of `C[C@H]1NC(=O)[C@@H]2C[C@H]2CCCCCn2c(-c3nc4cc(C(=O)N[C@H]5CNC[C@H]6C[C@H]65)c(F)cc4n3C3CC3)cc3ccc1nc32` [Example 575, ~{N}-[(1~{S),5~{R},6~{R})-3-azabicyclo[4.1.0]heptan-5-yl]-1-cyclopropyl-6-fluoro-2-[(2~{R},5~{R},7~{R})-2-methyl-4-oxo-3,13,19-triazatetracyclo[11.5.2.0^ {5,7}.0^{16,20}]icosa-1(19),14,16(20),17-tetraen-14-yl]benzimidazole-5-carboxamide], 26 nM. Take `COc1cc(C(=O)N2C[C@H]3CC[C@@H]2[C@@H]3N)cc2nc(-c3cc4ccc5nc4n3CCCCCCC(C)(C)C(=O)N[C@@H]5C)n(C)c12` [Example 13, (11~{R})-17-[5-[(1~{R},4~{R},7~{R})-7-amino-2-azabicyclo[2.2.1]heptane-2-carbonyl]-7-methoxy-1-methyl-benzimidazol-2-yl]-8,8,11-trimethyl-1,10,19-triazatricyclo[10.5.2.0^{15,18}]nonadeca-12(19),13,15(18),16-tetraen-9-one]: the IC50 came out at 121 nM. The same measure for `COc1cc(C(=O)N2[C@H]3CC[C@@H]2[C@H](N)C3)cc2nc(-c3cc4ccc5nc4n3CCCCCCNc3ncccc3-5)n(C)c12` [Example 96, [(1˜{R},2˜{R},4˜{S})-2-amino-7-azabicyclo[2.2.1]heptan-7-yl]-[7-methoxy-1-methyl-2-(6,8,15,21-tetrazatetracyclo[13.5.2.0^{2,7}.0^{18,22}]docosa-1(21),2,4,6,16,18(22),19-heptaen-16-yl)benzimidazol-5-yl]methanone]: 3130 nM; for `C[C@H]1NC(=O)c2cc3ccccc3nc2CCCCCn2c(-c3nc4cc(C(=O)N5C[C@H](N)[C@@H]6CC[C@H]5C6)c(F)c(F)c4n3C3CC3)cc3ccc1nc32` [Example 754, (2~{R})-21-[5-[(1~{S},4~ {R},5~{R})-4-amino-2-azabicyclo[3.2.1]octane-2-carbonyl]-1-cyclopropyl-6,7-difluoro-benzimidazol-2-yl]-2-methyl-3,13,20,26-tetrazapentacyclo[18.5.2.0^ {5,14}.0^{7,12}.0^{23,27}] heptacosa-1(26),5(14),6,8, 10,12,21,23(27),24-nonaen-4-one]: 59 nM; for `COc1cc(C(=O)N2CCC[C@@H](N)[C@H]2C)cc2nc(-c3cc4ccc5nc4n3CCCCC[C@]3(F)C[C@H]3C(=O)N[C@@H]5C)n(C)c12` [Example 706, (2~{R},5~{S},7~{S})-14-[5-[(2~{R},3~{R})-3-amino-2-methyl-piperidine-1-carbonyl]-7-methoxy-1-methyl-benzimidazol-2-yl]-7-fluoro-2-methyl-3,13,19-triazatetracyclo[11.5.2.0^ {5,7}.0^{16,20}]icosa-1(19),14,16(20),17-tetraen-4-one]: 19 nM. In the case of `COc1cc(C(=O)N2C[C@H](N)[C@@H]3CC[C@H]2C3)cc2nc(-c3cc4ccc5nc4n3CCCCC[C@@H]3C[C@H]3C(=O)N[C@@H]5C)n(C3CC3)c12` [Example 767, (2~{R},5~{R},7~{R})-14-[5-[(1~{S},4~{R},5~{R})-4-amino-2-azabicyclo[3.2.1]octane-2-carbonyl]-1-cyclopropyl-7-methoxy-benzimidazol-2-yl]-2-methyl-3,13,19-triazatetracyclo[11.5.2.0^ {5,7}.0^{16,20}]icosa-1(19),14,16(20),17-tetraen-4-one] it was 18 nM; in that of `COc1cc(C(=O)N2CC[C@@H](OC)[C@@H](N)C2)cc2nc(-c3cc4ccc5nc4n3C[C@H]3C[C@H]3CCCC(C)(C)C(=O)N[C@@H]5C)n(C)c12` [Example 366, (3~{S),5~{R},12~{R})-18-[5-[(3~{S},4~{R})-3-amino-4-methoxy-piperidine-1-carbonyl]-7-methoxy-1-methyl-benzimidazol-2-yl]-9,9,12-trimethyl-1,11,20-triazatetracyclo[11.5.2.0^{3,5}.0^{16,19}] icosa-13(20),14,16(19),17-tetraen-10-one], 120 nM.

What is called IC50 is the concentration that inhibits the measured activity by half.
